These results are taken from BindingDB's records for doi:10.1021/jm100306a (University of Pennsylvania, 2010).

For the test, the target named is T1, Arginase-1 (Homo sapiens, UniProt P05089).
T1 sequence (P05089 whole entry): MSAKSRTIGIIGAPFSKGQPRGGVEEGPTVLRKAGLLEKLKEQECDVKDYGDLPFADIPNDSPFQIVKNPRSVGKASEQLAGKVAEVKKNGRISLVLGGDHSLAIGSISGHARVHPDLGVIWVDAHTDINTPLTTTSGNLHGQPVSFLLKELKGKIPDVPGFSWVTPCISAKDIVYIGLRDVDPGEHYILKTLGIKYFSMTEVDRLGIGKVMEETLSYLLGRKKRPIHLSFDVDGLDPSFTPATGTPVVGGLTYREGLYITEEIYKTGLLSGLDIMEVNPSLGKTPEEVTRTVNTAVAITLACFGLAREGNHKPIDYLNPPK
Description: Inhibition of human recombinant full length arginase 1 expressed in Escherichia coli BL21(DE3) by fixed point assay.

One may read the Ki as the dissociation constant of the complex between target and ligand, obtained from inhibition or displacement.

With `Nc1ncc(CCCC(N)C(=O)O)[nH]1` (stereo unspecified) [2-amino-5-(2-aminoimidazol-4-yl)pentanoic acid], the Ki is more than 800 mM.
